Measured values from paper PMC6797691, “Towards the understanding of the enzymatic cleavage of polyisoprene by the dihaem-dioxygenase RoxA” (AMB Express, 2019).

Molecular target: RoxA (RoxA-Wt, rubber oxygenase A) (Xanthomonas sp. 35Y, UniProt Q7X0P3)
Conditions: RoxA as isolated (oxygenated haem), pyridine 2 mM, pH 7; N-terminal haem iron, displaces bound dioxygen

Chain of RoxA (RoxA-Wt, rubber oxygenase A) (Q7X0P3 entry or part of it): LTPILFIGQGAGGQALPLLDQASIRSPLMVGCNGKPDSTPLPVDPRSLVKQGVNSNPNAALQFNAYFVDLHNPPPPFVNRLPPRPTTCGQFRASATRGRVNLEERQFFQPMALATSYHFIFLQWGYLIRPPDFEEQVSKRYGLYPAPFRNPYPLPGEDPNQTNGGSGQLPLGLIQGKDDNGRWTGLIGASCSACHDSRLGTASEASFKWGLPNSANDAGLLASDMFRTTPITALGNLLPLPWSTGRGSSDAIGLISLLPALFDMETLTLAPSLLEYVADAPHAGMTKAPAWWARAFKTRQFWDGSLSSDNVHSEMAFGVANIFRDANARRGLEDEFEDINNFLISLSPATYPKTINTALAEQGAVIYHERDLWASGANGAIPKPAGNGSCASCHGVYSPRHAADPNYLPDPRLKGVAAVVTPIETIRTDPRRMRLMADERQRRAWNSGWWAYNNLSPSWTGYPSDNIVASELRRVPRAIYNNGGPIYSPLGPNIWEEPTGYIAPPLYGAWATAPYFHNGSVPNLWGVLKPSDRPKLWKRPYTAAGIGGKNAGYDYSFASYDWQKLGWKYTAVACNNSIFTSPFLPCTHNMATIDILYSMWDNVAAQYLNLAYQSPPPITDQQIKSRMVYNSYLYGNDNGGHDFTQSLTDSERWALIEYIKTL

For c1ccncc1 [pyridine], the “UV-vis spectroscopy (549 nm band), EPR” value was “displacement of haem-bound dioxygen by N-heterocycles that then serve as artificial ligands to a ferrous haem”.
